In PubChem BioAssay (NCI):
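Assay format: 96-well plates, 48-hour exposure. GI50 marks 50% less growth. TGI denotes the concentration required for complete inhibition of growth.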 Where a SMILES comes first, the peptide text is derived from it. [ ]: non-standard residue; d: D form. The star is where a group is joined. Tyr(3-Br) = N[C@@H](Cc1ccc(O)c(Br)c1)C(=O)O; Boc = CC(C)(C)OC(=O)*

Columns and labels:
Experiment in all cases: NCI anticancer screen, dose series, 48 h
NCI-H460 lung = system: NCI-H460 lung
K-562 leukemia = system: K-562 leukemia
KM12 colon = system: KM12 colon
OVCAR-3 ovarian = system: OVCAR-3 ovarian
NCI-H23 lung = system: NCI-H23 lung
SNB-75 CNS = system: SNB-75 CNS
COLO 205 colon = system: COLO 205 colon
DU-145 prostate = system: DU-145 prostate
SK-MEL-2 melanoma = system: SK-MEL-2 melanoma
UACC-62 melanoma = system: UACC-62 melanoma

SMILES | TGI (NCI-H460 lung) [µM] | TGI (K-562 leukemia) [µM] | TGI (KM12 colon) [µM] | TGI (OVCAR-3 ovarian) [µM] | TGI (NCI-H23 lung) [µM] | TGI (SNB-75 CNS) [µM] | TGI (COLO 205 colon) [µM] | TGI (DU-145 prostate) [µM] | TGI (SK-MEL-2 melanoma) [µM] | TGI (UACC-62 melanoma) [µM] | GI50 (NCI-H460 lung) [µM] | GI50 (K-562 leukemia) [µM] | GI50 (UACC-62 melanoma) [µM] | GI50 (KM12 colon) [µM] | GI50 (OVCAR-3 ovarian) [µM] | GI50 (NCI-H23 lung) [µM] | GI50 (SNB-75 CNS) [µM] | GI50 (COLO 205 colon) [µM] | GI50 (DU-145 prostate) [µM]
Oc1ccccc1C=Nc1ccc(-c2nc3ccccc3[nH]2)cc1 | > 100 | > 100 | > 100 | > 100 | > 100 | > 100 | > 100 | > 100 | > 100 |  |  |  |  |  |  |  |  |  | 
C[C@]12Cc3cnn(-c4ccc(F)cc4)c3NC1CC[C@@H]1C2CC[C@@]2(C)C1CC[C@@H]2O (some centres undefined) | 16.6 | 24 | 18.3 | 46.3 | 18.7 | 13.3 | 10.3 | 27.8 |  | 23.3 |  |  |  |  |  |  |  |  | 
CCCCSC1=N/C(=C\c2ccc(N(C)C)cc2)C(NN)=N1 | > 100 | > 100 | > 100 | > 100 | > 100 | > 100 |  | > 100 | > 100 | > 100 |  |  |  |  |  |  |  |  | 
N#CC(C#N)=C(N)/C(C#N)=C/c1ccc2ccccc2n1 | > 100 | > 100 | 41.5 | 33.4 | > 100 | > 100 |  | > 100 | > 100 | 45.9 |  |  |  |  |  |  |  |  | 
O=C(Nc1nn(C(=O)c2ccc(Cl)cc2)c(=O)s1)c1ccc(Cl)cc1 | > 100 | > 100 | > 100 | > 100 | > 100 |  | > 100 | > 100 |  | > 100 |  |  |  |  |  |  |  |  | 
C=C1C(=O)C[C@@]23CCC[C@@]12CC(OCOC)C3 (some centres undefined) | 13.2 | > 51.5 | 9.48 | 6.48 | 11.1 | 6.41 | 14.6 |  | 11.2 | 7.62 |  |  |  |  |  |  |  |  | 
COc1ccc(/C=C2\CCC(C)/C(=C\c3ccc(OC)c(OC)c3)C2=O)cc1OC (centres undefined) |  | 67.3 | 7.04 | > 100 | 15.6 |  | 54.2 | 21 | 25.3 | 23.1 |  |  |  |  |  |  |  |  | 
COc1ccc(C2Oc3cc(OC)c(O)c(C)c3[C@H]2C)cc1 (some centres undefined) | > 100 | > 100 | > 100 | > 100 | > 100 | 69.5 | > 100 |  | > 100 | > 100 |  |  |  |  |  |  |  |  | 
Nc1nc(Cl)cc(OCC2(CO)CC(OCc3ccccc3)C2)n1 (centres undefined) |  |  |  |  |  |  |  |  |  |  | 66.3 | 36.5 | 77.1 | 55.5 | 47.1 | 36.5 | 27.9 | 72.5 | 66.3
CC(=O)NNc1nc(C)c(C(/C=C/c2ccc([N+](=O)[O-])cc2)=N/NC(N)=S)s1 | > 100 |  | > 100 | > 100 | > 100 | > 100 | > 100 | > 100 | > 100 | > 100 |  |  |  |  |  |  |  |  | 
CC(C)CCC[C@@H](C)C1CCC2[C@@H]3CC=C4C[C@@H](C(=O)NCC[N+](C)(C)CCCS(=O)(=O)[O-])CC[C@]4(C)C3CC[C@@]21C (some centres undefined) | 30.6 | 29.9 | 31.5 | 30 |  | 35.1 | 31.9 |  | 32.4 | 34.7 |  |  |  |  |  |  |  |  | 
Cc1ccc2c(c1)C(=O)N1CCC[C@H]1C=N2 | > 71.6 | > 100 | 39.7 | > 67.2 | 39.7 |  | 37.8 | > 100 | 34.9 | 34.7 |  |  |  |  |  |  |  |  | 
O=C(NNC(c1ccccc1)C(F)(F)F)c1ccncc1 (centres undefined) | > 100 | > 100 | > 100 |  | > 100 | > 100 | > 100 | > 100 | > 100 |  |  |  |  |  |  |  |  |  | 
CS(=O)(=O)c1c(N)c2nc(Cl)cn2c2nc3ccccc3nc12 | > 100 | > 100 | > 100 | > 100 | > 100 | > 100 | > 100 |  | > 100 | > 100 |  |  |  |  |  |  |  |  | 
CCN(CC)C(=S)SS(=O)(=O)c1ccc(Cl)cc1 | > 100 | 63.3 | 24.4 | > 100 | > 100 |  | > 100 | 82 | > 100 | > 100 |  |  |  |  |  |  |  |  | 
CCN(CC)CCN1C(=O)c2c(c(-c3ccccc3)c3ccccc3c2-c2ccccc2)C1=O | > 100 | > 100 | > 100 |  |  | > 100 | > 100 |  | > 100 | > 100 |  |  |  |  |  |  |  |  | 
C=C1C(=O)OC2/C=C(/C)C3CC(O)C(C)(CC(OC(=O)/C(C)=C/C)C12)O3 (centres undefined) | 18.3 | > 28.8 | 11.3 | 14.2 | 16.9 | 28.2 | 3.08 |  | 7.34 | 5.22 |  |  |  |  |  |  |  |  | 
Cc1cc(N=Nc2c(O)ccc3ccccc23)ccc1N=Nc1cccc([N+](C)(C)C)c1 | 30.9 | > 90.7 | 17.3 | 41 | 52 | 26.3 |  | 48.2 | 47.3 | > 61.6 |  |  |  |  |  |  |  |  | 
CN1CCCCC(C#N)(c2ccccc2)CC1 (centres undefined) | > 100 | > 100 | > 100 |  | > 100 | > 100 | > 100 | > 100 |  |  |  |  |  |  |  |  |  |  | 
COC(=O)[C@H](Cc1ccc(O)c(Br)c1)NC(=O)[C@H](Cc1ccc(O)cc1)NC(=O)OC(C)(C)C (Boc-Tyr-[Tyr(3-Br)]-OMe) | 37.7 | > 100 | > 100 | 38.3 | 71.5 | > 100 | > 100 | > 100 | > 100 |  |  |  |  |  |  |  |  |  | 
C/C=C1/CN2CCC3(O)c4ccccc4N4C=C(C(=O)OC)C1CC2C43O (centres undefined) | > 100 | > 100 | > 100 | > 100 | > 100 | > 100 | > 100 | > 100 |  | > 100 |  |  |  |  |  |  |  |  | 
C/C1=C/C(C)CC(C)OC(=O)C(C)NC(=O)C(Cc2ccc(O)c(I)c2)N(C)C(=O)C(C)NC(=O)C(C)C1 (centres undefined) | 12.8 | > 40.8 | 24.3 | < 0.01 | 44.4 | < 0.01 |  | > 58.1 | 5.67 | 15 |  |  |  |  |  |  |  |  | 
CCN(CC)CCNC(=O)c1ccc(I)cc1 | > 100 | > 100 | > 100 | > 100 | > 100 | > 100 | > 100 | > 100 | > 100 |  |  |  |  |  |  |  |  |  | 
